Earlier results on one compound are cited in US20180305742A1, “USE OF ESTROGENIC COMPOUNDS TO […] BACTERIAL COMPOSITION OF VAGINAL COMMUNITIES” (University of Idaho, priority 2017, published 2018).

The test system of this data set is estrogen receptor.

Regarding `C[C@]12CC[C@@H]3c4ccc(O)cc4CC[C@H]3[C@@H]1C[C@@H](O)[C@@H]2O` [Estriol, estriol], the “potency relative to estradiol” value (as potent as estradiol) is 8%. For the same compound, for the setting “as potent as estrone”, the “potency relative to estrone” value is listed as 14%.
